Assay results reported in publication PMC10184130.

Legend:
[1] = molecular target: T1, human C1r (Homo sapiens, UniProt P00736); assay: Human C1r enzyme assay; type: biochemical; details: supplementary csv
T1 construct: Recombinant human C1r (375–705 aa) fused with both the N-terminal IgG signal peptide; IgG signal peptide (N); His tag (C); made in house; host or cells: HEK293 cells
T1 sequence (P00736 375-705): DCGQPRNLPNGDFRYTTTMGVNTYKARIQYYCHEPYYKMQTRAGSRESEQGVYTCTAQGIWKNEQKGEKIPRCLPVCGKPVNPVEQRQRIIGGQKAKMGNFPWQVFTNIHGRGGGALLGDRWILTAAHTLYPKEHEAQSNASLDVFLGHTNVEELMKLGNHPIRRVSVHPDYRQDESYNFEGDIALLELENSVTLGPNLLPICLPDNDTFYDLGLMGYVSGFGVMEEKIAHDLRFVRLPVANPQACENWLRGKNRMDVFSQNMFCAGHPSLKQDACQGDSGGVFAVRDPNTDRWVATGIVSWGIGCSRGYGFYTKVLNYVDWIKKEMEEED
Text: Recombinant human C1r (375–705 aa) fused with both the N-terminal IgG signal peptide and the C-terminal His tag was expressed in HEK293 cells and purified. Human C1r assay conditions were the same as for human C1s, except that the enzyme solution concentration was 3 nmol/L and the substrate peptide was 250 μmol/L Z-Gly-Arg-SBzl (custom synthesis from Peptide Institute, Osaka, Japan) instead of Z-Lys-SBzl.

[2] = molecular target: T2, human factor D (Homo sapiens, UniProt P00746); assay: Human factor D enzyme assay; type: biochemical; details: supplementary csv
T2 construct: Recombinant human factor D (26–253 aa) fused with both the N-terminal IgG signal peptide; IgG signal peptide (N); His tag (C); made in house; host or cells: Expi293 cells
Text: Recombinant human factor D (26–253 aa) fused with both the N-terminal IgG signal peptide and the C-terminal His tag was expressed in Expi293 cells and purified. The human factor D assay condition was the same as for human MASP2, except that the enzyme solution concentration was 20 nmol/L and the substrate solution contained a 400 μmol/L Z-Lys-SBzl peptide and 50 μmol/L BES-Thio.

[3] = molecular target: human kallikrein; assay: Human kallikrein enzyme assay; type: biochemical; details: supplementary csv
Description: Recombinant human kallikrein (R&D Systems, MN, USA) was activated by thermolysin (R&D Systems, MN, USA) prior to use. Compounds were dissolved in DMSO and then diluted in an assay buffer [50 mmol/L Tris–HCl (pH 7.5), 150 mmol/L NaCl, 10 mmol/L CaCl2, and 0.01% (w/v) Tween 20]. After 5 μL of compound solution was added to a 384-well black plate, 5 μL of substrate solution containing 150 μmol/L Pro-Phe-Arg-AMC (Peptide Institute, Osaka, Japan) was added to the plate. Then, 0.42 nmol/L human kallikrein was added to the plate and incubated at room temperature for 60 min. The fluorescence at an excitation wavelength of 380 nm and an emission wavelength of 460 nm was detected using a SpectraMax Paradigm plate reader.

[4] = molecular target: T3, Human Multidrug Resistance 1 (MDR-1) Expressing Cells (Homo sapiens, UniProt P08183); assay: Membrane permeability with human MDR-1 expressing cells; type: in vitro ADME; details: supplementary csv
T3 construct: expressed in transfected cells
Description: (§1) The transcellular transport study was performed as reported previously.[31] In brief, the cells were grown in an HTS Transwell 96-well permeable support (pore size of 0.4 μm, 0.143 cm^2 surface area) with a polyethylene terephthalate membrane (Corning Life Sciences, Lowell, MA, USA) at a density of 1.125 × 10^5 cells/well. The cells were preincubated with M199 at 37 °C for 30 min. Subsequently, transcellular transport was initiated by the addition of M199 to apical compartments containing 1 μmol/L test compounds and terminated by the removal of each assay plate after 2 h. The aliquots in the opposite compartments were subjected to measurement for compound concentration by LC–MS/MS. Permeability was calculated using the permeated compound concentration.

[5] = molecular target: T4, MDR1 (P-gp) (Homo sapiens, UniProt P08183); assay: as above; type: in vitro ADME; details: human; MDR1-expressing cells, 1 μmol/L, 2 h
T4 construct: expressed in transfected cells
Description: as §1

[6] = molecular target: T5, human C1s (Homo sapiens, UniProt P09871); assay: Human C1s enzyme assay; type: biochemical; details: 95% confidence intervals in parentheses
T5 construct: Recombinant human C1s (358–688 aa) fused with both the N-terminal IgG signal peptide; IgG signal peptide (N); His tag (C); made in house; host or cells: HEK293 cells
T5 sequence (P09871 358-688): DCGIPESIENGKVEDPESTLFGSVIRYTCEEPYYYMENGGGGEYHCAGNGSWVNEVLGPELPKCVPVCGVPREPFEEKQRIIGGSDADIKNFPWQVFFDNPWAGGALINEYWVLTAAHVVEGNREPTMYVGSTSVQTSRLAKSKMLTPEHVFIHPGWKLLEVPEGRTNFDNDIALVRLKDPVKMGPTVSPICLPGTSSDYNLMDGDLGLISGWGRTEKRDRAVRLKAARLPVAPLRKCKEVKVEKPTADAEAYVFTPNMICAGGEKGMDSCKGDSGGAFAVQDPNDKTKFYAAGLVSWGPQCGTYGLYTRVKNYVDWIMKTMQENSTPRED
Description: Recombinant human C1s (358–688 aa) fused with both the N-terminal IgG signal peptide and the C-terminal His tag was expressed in HEK293 cells and purified. The assay was performed in a 384-well clear plate in a total volume of 20 μL of an assay buffer 1 [50 mmol/L Tris–HCl (pH 7.5), 150 mmol/L NaCl, 0.01% (w/v) Tween 20, and 0.01% (w/v) BSA]. Compounds were dissolved in DMSO and diluted to various concentrations. After 20 nL of compound solution was added to the plate, 10 μL of substrate solution containing a 250 μmol/L Z-Lys-SBzl peptide (Watanabe Chemical, Hiroshima, Japan) and 250 μmol/L DTNB (5,5′-dithiobis(2-nitrobenzoic acid)) (Sigma, MO, USA) was added to the plate. Then, 8 nmol/L human C1s was added to the plate and incubated at room temperature for 60 min. The absorbance at 405 nm was detected using an EnVision multilabel plate reader. […] The IC50 values were calculated using IDBS XLfit software.

T2 sequence (P00746 26-253): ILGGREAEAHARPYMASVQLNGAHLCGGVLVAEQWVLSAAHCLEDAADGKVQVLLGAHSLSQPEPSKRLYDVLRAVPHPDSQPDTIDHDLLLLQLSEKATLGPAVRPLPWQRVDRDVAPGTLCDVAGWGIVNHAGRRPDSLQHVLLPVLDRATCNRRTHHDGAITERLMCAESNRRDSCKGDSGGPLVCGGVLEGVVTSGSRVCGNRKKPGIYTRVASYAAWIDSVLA

- IC50 [1]: > 30 µM
- IC50 [2]: > 30 µM
- IC50 [3]: > 30 µM
- MDR1 (A to B) [4]: 14 nm/s
- Papp A→B at 2 h, 1 μmol/L [5]: 1.4 ×10⁻⁶ cm/s
- IC50 [6]: 0.036 µM
Compound: Cc1cc([C@H]2CN(c3cc(F)c4c(N)nncc4c3)CCN2c2cccc(F)c2)no1 [Compound (R)-8, 8-Fluoro-6-[(3R)-4-(3-fluorophenyl)-3-(5-methyl-1,2-oxazol-3-yl)piperazin-1-yl]phthalazin-1-amine]
